Results reported in publication PMC7686039 (Bioorganic chemistry, 2020).
“Also recorded” adds a separate entry of the source.

Columns and labels:
[1] = biological target: Recombinant full-length Sirt1 (human) (UniProt Q96EB6); test: cross-linking
[2] = system: Sirt1 (overexpressed) in HEK293T lysates; test: p53 ABP labeling of Sirt1 in HEK293T lysates overexpressing Sirt1; assay type: binding; details: 500 μM inhibitor; 5 μM p53 ABP, 50 μg lysate, 500 μM NAD^+
Sirt2 = details: cited from earlier work
recombinant Sirt1 = test: inhibition/competition of p53 ABP labeling of recombinant Sirt1; assay type: binding, human
Sirt1 = details: ref [17]; cited from earlier work

Sequence of UniProt Q96EB6 (Q96EB6 whole entry): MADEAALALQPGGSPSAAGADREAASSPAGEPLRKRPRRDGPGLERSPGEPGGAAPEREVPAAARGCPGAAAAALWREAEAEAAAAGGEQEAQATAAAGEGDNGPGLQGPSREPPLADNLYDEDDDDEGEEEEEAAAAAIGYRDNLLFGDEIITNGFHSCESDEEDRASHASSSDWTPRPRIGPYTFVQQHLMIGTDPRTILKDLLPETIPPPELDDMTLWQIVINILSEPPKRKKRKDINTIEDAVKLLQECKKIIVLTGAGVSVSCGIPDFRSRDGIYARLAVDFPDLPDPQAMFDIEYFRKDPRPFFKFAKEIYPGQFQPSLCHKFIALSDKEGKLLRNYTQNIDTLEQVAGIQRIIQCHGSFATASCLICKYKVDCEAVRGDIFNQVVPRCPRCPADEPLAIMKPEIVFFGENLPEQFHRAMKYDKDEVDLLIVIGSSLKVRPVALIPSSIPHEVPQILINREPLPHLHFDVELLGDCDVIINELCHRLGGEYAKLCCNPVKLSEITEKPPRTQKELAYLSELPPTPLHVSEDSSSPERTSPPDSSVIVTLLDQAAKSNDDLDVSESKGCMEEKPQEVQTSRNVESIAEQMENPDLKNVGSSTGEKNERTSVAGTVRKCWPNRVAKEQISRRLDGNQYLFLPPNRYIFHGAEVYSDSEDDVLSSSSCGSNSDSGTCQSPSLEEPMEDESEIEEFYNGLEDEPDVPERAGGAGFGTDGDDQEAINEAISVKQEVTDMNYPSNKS

Compound: 8-mer thioacetyl-lysine p53 peptide, (diazirine)-RHKK(thioacetyl)LMF-(propargylglycine)-NH2
- fold increase of labelling with NAD+ over without NAD+ [1]: 4 fold

Compound: CCCCCCCCCCCCCC(=S)NCCCCC(NC(=O)OCc1ccccc1)C(=O)Nc1ccccc1 (centres unmarked) [TM]
- change of p53 ABP labeling of Sirt1 [2]: no reduction in activity-based labeling of Sirt1
- Sirt2 selectivity of TM (Sirt2; ref [22]): Sirt2-selective

Compound: N[C@@H](CCC(=O)N[C@@H](CSN=O)C(=O)NCC(=O)O)C(=O)O [GSNO, S-nitrosoglutathione]
- effect on p53 ABP labeling of recombinant Sirt1, GSNO pretreatment (recombinant Sirt1; 100 μM GSNO, presence and absence of 500 μM NAD^+): A dramatic loss of Sirt1 labeling
- Sirt1 deacetylase activity upon S-nitrosation (Sirt1): complete loss of deacetylase activity

Compound: Cc1cc(C)nc(SCC(=O)Nc2ncc(Cc3cccc4ccccc34)s2)n1 [SirReal2]
- change of p53 ABP labeling of Sirt1 [2]: no reduction in activity-based labeling of Sirt1; also recorded: a slight increase in activity-based labeling of Sirt1
- Sirt2 selectivity of SirReal2 (Sirt2; ref [48]): Sirt2-selective

Compound: H2N-RHKK(trifluoroacetyl)LMF-NH2 [p53tfa]
- concentration needed to compete with p53 ABP labeling versus Kd (recombinant Sirt1; 0.2–500 μM, competitor reversible, p53 ABP labeling covalent and irreversible): exceeds the Kd values
